Results: patent US20100080770A1, “Hepatitis C Virus Inhibitors” (priority 2008, published 2010)

Biological target: T1, HCV NS3/4A protease complex (Hepatitis C virus genotype 1a, UniProt P27958, C1454S/C1711G)
T1 construct: recombinant HCV NS3/4A protease complex (amino acids 1027 to 1711); inferred from the pET21b vector and Ni-NTA purification; made in house; host or cells: Escherichia coli BL21 (DE3)
Experiment: FRET peptide assay to monitor HCV NS3/4A proteolytic activity
Type: biochemical
Conditions: not given
Source text: HCV NS3 protease complexes, derived from the BMS strain, H77 strain or J4L6S strain, were generated, as described below. These purified recombinant proteins were generated for use in a homogeneous assay (see below) to provide an indication of how effective compounds of the present disclosure would be in inhibiting HCV NS3 proteolytic activity.
The H77 and J4L6S strains were used for production of recombinant NS3/4A protease complexes. DNA encoding the recombinant HCV NS3/4A protease complex (amino acids 1027 to 1711) for these strains was manipulated as described by P. Gallinari et al. (see Gallinari P, Paolini C, Brennan D, Nardi C, Steinkuhler C, De Francesco R. Biochemistry. 38(17):5620-32, (1999)). Briefly, a three-lysine solubilizing tail was added at the 3′-end of the NS4A coding region. The cysteine in the P1 position of the NS4A-NS4B cleavage site (amino acid 1711) was changed to a glycine to avoid the proteolytic cleavage of the lysine tag. Furthermore, a cysteine to serine mutation was introduced by PCR at amino acid position 1454 to prevent the autolytic cleavage in the NS3 helicase domain. The variant DNA fragment was cloned in the pET21b bacterial expression vector (Novagen) and the NS3/4A complex was expressed in Escherichia coli strain BL21 (DE3) (Invitrogen) following the protocol described by P. Gallinari et al. (see Gallinari P, Brennan D, Nardi C, Brunetti M, Tomei L, Steinkuhler C, De Francesco R., J Virol. 72(8):6758-69 (1998)) with modifications. Briefly, the NS3/4A protease complex expression was induced with 0.5 millimolar (mM) Isopropyl β-D-1-thiogalactopyranoside (IPTG) for 22 hours (h) at 20° C. A typical fermentation (1 Liter (L)) yielded approximately 10 grams (g) of wet cell paste. The cells were resuspended in lysis buffer (10 mL/g) consisting of 25 mM N-(2-Hydroxyethyl)Piperazine-N′-(2-Ethane Sulfonic acid) (HEPES), pH 7.5, 20% glycerol, 500 mM Sodium Chloride (NaCl), 0.5% Triton X-100, 1 microgram/milliliter (“μg/mL”) lysozyme, 5 mM Magnesium Chloride (MgCl2), 1 μg/ml DnaseI, 5 mM β-Mercaptoethanol (βME), Protease inhibitor-Ethylenediamine Tetraacetic acid (EDTA) free (Roche), homogenized and incubated for 20 minutes (min) at 4° C. The homogenate was sonicated and clarified by ultra-centrifugation at 235000 g for 1 hour (h) at 4° C. Imidazole was added to the supernatant to a final concentration of 15 mM and the pH adjusted to 8.0. The crude protein extract was loaded on a Nickel-Nitrilotriacetic acid (Ni-NTA) column pre-equilibrated with buffer B (25 mM HEPES, pH 8.0, 20% glycerol, 500 mM NaCl, 0.5% Triton X-100, 15 mM imidazole, 5 mM βME). The sample was loaded at a flow rate of 1 ml/min. The column was washed with 15 column volumes of buffer C (same as buffer B except with 0.2% Triton X-100). The protein was eluted with 5 column volumes of buffer D (same as buffer C except with 200 mM Imidazole).
NS3/4A protease complex-containing fractions were pooled and loaded on a desalting column Superdex-S200 pre-equilibrated with buffer D (25mM HEPES, pH 7.5, 20% glycerol, 300 mM NaCl, 0.2% Triton X-100, 10 mM βME). Sample was loaded at a flow rate of 1 mL/min. NS3/4A protease complex-containing fractions were pooled and concentrated to approximately 0.5 mg/ml. The purity of the NS3/4A protease complexes, derived from the BMS, H77 and J4L6S strains, were judged to be greater than 90% by SDS-PAGE and mass spectrometry analyses. The enzyme was stored at −80° C., thawed on ice and diluted prior to use in assay buffer.
The purpose of this in vitro assay was to measure the inhibition of HCV NS3 protease complexes, derived from the BMS strain, H77 strain or J4L6S strain, as described above, by compounds of the present disclosure. This assay provides an indication of how effective compounds of the present disclosure would be in inhibiting HCV NS3 proteolytic activity.
In order to monitor HCV NS3/4A protease activity, an NS3/4A peptide substrate was used. […]

T1 sequence (P27958 1027-1711 C1454S/C1711G, one chain of several): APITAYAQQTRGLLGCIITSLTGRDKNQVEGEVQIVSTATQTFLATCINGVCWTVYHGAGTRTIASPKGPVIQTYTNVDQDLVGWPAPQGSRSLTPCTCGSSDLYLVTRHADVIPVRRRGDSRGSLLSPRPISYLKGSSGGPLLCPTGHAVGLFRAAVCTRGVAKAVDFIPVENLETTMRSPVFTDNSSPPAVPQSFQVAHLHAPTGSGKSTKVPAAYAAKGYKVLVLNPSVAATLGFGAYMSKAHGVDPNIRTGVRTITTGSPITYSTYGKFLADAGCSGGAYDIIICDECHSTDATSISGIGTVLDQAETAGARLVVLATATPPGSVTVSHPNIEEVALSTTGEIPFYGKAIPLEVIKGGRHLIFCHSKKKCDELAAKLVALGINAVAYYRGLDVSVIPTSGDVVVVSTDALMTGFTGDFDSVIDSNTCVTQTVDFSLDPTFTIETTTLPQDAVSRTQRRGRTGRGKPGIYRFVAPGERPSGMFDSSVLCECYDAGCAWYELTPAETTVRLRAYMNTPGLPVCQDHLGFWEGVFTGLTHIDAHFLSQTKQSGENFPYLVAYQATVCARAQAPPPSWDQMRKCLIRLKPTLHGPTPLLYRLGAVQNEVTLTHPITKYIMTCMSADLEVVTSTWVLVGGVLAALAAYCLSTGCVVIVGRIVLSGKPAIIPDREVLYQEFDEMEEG

| Compound | IC50 [nM] |
| --- | --- |
| CO[C@@]12C[C@@H](C(=O)N[C@]3(C(=O)NS(=O)(=O)C4CC4)C[C@H]3C3CC3)N(C1)C(=O)[C@H](C(C)(C)C)NC(=O)OCCCCCCc1ccc3ccc2cc3c1 [Example 31] | 1 to 10 |

Same assay, conditions: HCV NS3/4A protease complex; strain not stated; class symbols; read-out: IC50

| Compound | IC50 [nM] |
| --- | --- |
| COc1cc2ccc3cc2cc1CCCCOC(=O)N[C@@H](C(C)(C)C)C(=O)N1C[C@@]3(OC)C[C@H]1C(=O)N[C@]1(C(=O)NS(=O)(=O)C2CC2)C[C@H]1C1CC1 [Example 2] | 11 to 12 |
| C=C[C@@H]1C[C@]1(NC(=O)[C@@H]1C[C@]2(OC)CN1C(=O)[C@H](C(C)(C)C)NC(=O)OCCCCc1cc3cc2ccc3cc1OC)C(=O)NS(=O)(=O)C1CC1 [Example 3] | 1 to 10 |
| C=C[C@@H]1C[C@]1(NC(=O)[C@@H]1C[C@]2(OC)CN1C(=O)[C@H](C(C)(C)C)NC(=O)OCCCCCc1cc3cc2ccc3cc1OC)C(=O)NS(=O)(=O)C1CC1 [Example 5] | 1 to 10 |
| COc1cc2ccc3cc2cc1CCCCCOC(=O)N[C@@H](C(C)(C)C)C(=O)N1C[C@@]3(OC)C[C@H]1C(=O)N[C@]1(C(=O)NS(=O)(=O)C2CC2)C[C@H]1C1CC1 [Example 6] | 1 to 10 |
| C=C[C@@H]1C[C@]1(NC(=O)[C@@H]1C[C@]2(OC)CN1C(=O)[C@H](C(C)(C)C)NC(=O)OCCCCCCCc1cc3cc2ccc3cc1OC)C(=O)NS(=O)(=O)C1CC1 [Example 20] | 11 to 12 |
| COc1cc2ccc3cc2cc1CCCCCCCOC(=O)N[C@@H](C(C)(C)C)C(=O)N1C[C@@]3(OC)C[C@H]1C(=O)N[C@]1(C(=O)NS(=O)(=O)C2CC2)C[C@H]1C1CC1 [Example 21] | 21 to 3200 |
| COc1cc2ccc3cc2cc1CCCCCCCCOC(=O)N[C@@H](C(C)(C)C)C(=O)N1C[C@@]3(OC)C[C@H]1C(=O)N[C@]1(C(=O)NS(=O)(=O)C2CC2)C[C@H]1C1CC1 [Example 22] | 1 to 10 |
| C=C[C@@H]1C[C@]1(NC(=O)[C@@H]1C[C@]2(OC)CN1C(=O)[C@H](C(C)(C)C)NC(=O)OCCCCCCCCc1cc3cc2ccc3cc1OC)C(=O)NS(=O)(=O)C1CC1 [Example 23] | 1 to 10 |
| C=C[C@@H]1C[C@]1(NC(=O)[C@@H]1C[C@]2(OC)CN1C(=O)[C@H](C(C)(C)C)NC(=O)OCCCCCCc1cc2cc2ccccc12)C(=O)NS(=O)(=O)C1CC1 [Example 24] | 1 to 10 |
| COc1cc2ccc3cc2cc1CCCCCCOC(=O)N[C@@H](C(C)(C)C)C(=O)N1C[C@@]3(O)C[C@H]1C(=O)N[C@]1(C(=O)NS(=O)(=O)C2CC2)C[C@H]1C1CC1 [Example 26] | 1 to 10 |
| COc1cc2ccc3cc2cc1CCCC(C)(C)CCOC(=O)N[C@@H](C(C)(C)C)C(=O)N1C[C@@]3(OC(=O)N(C)C)C[C@H]1C(=O)N[C@]1(C(=O)NS(=O)(=O)C2CC2)C[C@H]1C1CC1 [Example 27] | 1 to 10 |
| COCO[C@@]12C[C@@H](C(=O)N[C@]3(C(=O)NS(=O)(=O)C4CC4)C[C@H]3C3CC3)N(C1)C(=O)[C@H](C(C)(C)C)NC(=O)OCCC(C)(C)CCCc1cc3cc2ccc3cc1OC [Example 28] | 1 to 10 |
| C=C[C@@H]1C[C@]1(NC(=O)[C@@H]1C[C@]2(OC)CN1C(=O)[C@H](C(C)(C)C)NC(=O)OCCCCCCc1cc3cc2ccc3cc1N(C)C)C(=O)NS(=O)(=O)C1CC1 [Example 29] | 1 to 10 |
| CO[C@@]12C[C@@H](C(=O)N[C@]3(C(=O)NS(=O)(=O)C4CC4)C[C@H]3C3CC3)N(C1)C(=O)[C@H](C(C)(C)C)NC(=O)OCCCCCCc1cc3cc2ccc3cc1N(C)C [Example 30] | 1 to 10 |
| COc1c2cc3cc(ccc3c1Br)[C@]1(OC)C[C@@H](C(=O)N[C@]3(C(=O)NS(=O)(=O)C4CC4)C[C@H]3C3CC3)N(C1)C(=O)[C@H](C(C)(C)C)NC(=O)OCCC(C)(C)CCC2 [Example 33] | 11 to 12 |
| COc1ccc2ccc3cc2c1CCCCCOC(=O)N[C@@H](C(C)(C)C)C(=O)N1C[C@@]3(OC)C[C@H]1C(=O)N[C@]1(C(=O)NS(=O)(=O)C2CC2)C[C@H]1C1CC1 [Example 36] | 21 to 3200 |
| COc1ccc2ccc3cc2c1CCCCOC(=O)N[C@@H](C(C)(C)C)C(=O)N1C[C@@]3(OC)C[C@H]1C(=O)N[C@]1(C(=O)NS(=O)(=O)C2CC2)C[C@H]1C1CC1 [Example 37] | 21 to 3200 |
| COc1cc2ccc3cc2cc1CCCC(C)(C)CCOC(=O)N[C@@H](C(C)C)C(=O)N1C[C@@]3(OC)C[C@H]1C(=O)N[C@]1(C(=O)NS(=O)(=O)C2CC2)C[C@H]1C1CC1 [Example 38] | 1 to 10 |
| COc1cc2ccc3cc2cc1CCCC(C)(C)CCOC(=O)N[C@@H](C1CCOCC1)C(=O)N1C[C@@]3(OC)C[C@H]1C(=O)N[C@]1(C(=O)NS(=O)(=O)C2CC2)C[C@H]1C1CC1 [Example 39] | 1 to 10 |
| COc1cc2ccc3cc2cc1CCCC(C)(C)CCNC(=O)N[C@@H](C(C)(C)C)C(=O)N1C[C@@]3(OC)C[C@H]1C(=O)N[C@]1(C(=O)NS(=O)(=O)C2CC2)C[C@H]1C1CC1 [Example 40] | 1 to 10 |
| COc1cc2ccc3cc2cc1CCCCCCCC(=O)N[C@@H](C(C)(C)C)C(=O)N1C[C@@]3(OC)C[C@H]1C(=O)N[C@]1(C(=O)NS(=O)(=O)C2CC2)C[C@H]1C1CC1 [Example 41] | 1 to 10 |

Same assay, conditions: HCV NS3/4A protease complex; strain not stated; numeric values; read-out: IC50

| Compound | IC50 [nM] |
| --- | --- |
| C=C[C@@H]1C[C@]1(NC(=O)[C@@H]1C[C@]2(OC)CN1C(=O)[C@H](C(C)(C)C)NC(=O)OCCCCCc1cc2cc2ccccc12)C(=O)NS(=O)(=O)C1CC1 [Example 25] | 240 |
| COc1c2cc3cc(ccc3c1Cl)[C@]1(OC)C[C@@H](C(=O)N[C@]3(C(=O)NS(=O)(=O)C4CC4)C[C@H]3C3CC3)N(C1)C(=O)[C@H](C(C)(C)C)NC(=O)OCCC(C)(C)CCC2 [Example 32] | 25 |
| COc1cc2ccc3cc2cc1CCCC1(CCOC(=O)N[C@@H](C(C)(C)C)C(=O)N2C[C@@]3(OC)C[C@H]2C(=O)N[C@]2(C(=O)NS(=O)(=O)C3CC3)C[C@H]2C2CC2)CC1 [Example 34] | 1 |
| COc1ccc2ccc3cc2c1CCCCCCOC(=O)N[C@@H](C(C)(C)C)C(=O)N1C[C@@]3(OC)C[C@H]1C(=O)N[C@]1(C(=O)NS(=O)(=O)C2CC2)C[C@H]1C1CC1 [Example 35] | 413 |
